Measurements: patent publication US11752188B2, “Compositions and methods for nutritional supplements” (DailyColors Health Inc., priority 2020, dated 2023)
Where two headings read alike, the source gives them in different places. Blank lines part the entries; values can stand above or below the compound they belong to.

Key:
[1] = molecular target: T1, recombinant human IDO2 (Homo sapiens, UniProt Q6ZQW0); assay: IDO2 UV absorbance assay (L-tryptophan, 321 nm); assay type: biochemical; conditions: for Absorbance (net) Repeat 1 / Absorbance (net) Repeat 2: Table 46
T1 construct: purchased 71194
T1 sequence (Q6ZQW0 1-407): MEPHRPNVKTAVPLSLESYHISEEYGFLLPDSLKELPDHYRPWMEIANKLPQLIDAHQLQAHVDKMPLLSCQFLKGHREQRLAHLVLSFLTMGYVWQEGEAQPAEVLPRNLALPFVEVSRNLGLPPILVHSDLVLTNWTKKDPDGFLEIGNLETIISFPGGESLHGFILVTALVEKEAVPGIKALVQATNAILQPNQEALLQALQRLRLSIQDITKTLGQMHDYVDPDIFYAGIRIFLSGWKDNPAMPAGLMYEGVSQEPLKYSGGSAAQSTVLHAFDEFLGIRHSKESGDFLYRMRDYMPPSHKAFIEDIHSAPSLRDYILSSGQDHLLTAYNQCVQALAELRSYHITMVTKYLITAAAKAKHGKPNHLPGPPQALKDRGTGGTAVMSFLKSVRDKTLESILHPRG

[2] = molecular target: T2, SIRT1 (Homo sapiens, UniProt Q96EB6); assay: SIRT1 fluorogenic HDAC substrate activity assay; assay type: biochemical
T2 construct: purchased 50012
T2 sequence (Q96EB6 1-747): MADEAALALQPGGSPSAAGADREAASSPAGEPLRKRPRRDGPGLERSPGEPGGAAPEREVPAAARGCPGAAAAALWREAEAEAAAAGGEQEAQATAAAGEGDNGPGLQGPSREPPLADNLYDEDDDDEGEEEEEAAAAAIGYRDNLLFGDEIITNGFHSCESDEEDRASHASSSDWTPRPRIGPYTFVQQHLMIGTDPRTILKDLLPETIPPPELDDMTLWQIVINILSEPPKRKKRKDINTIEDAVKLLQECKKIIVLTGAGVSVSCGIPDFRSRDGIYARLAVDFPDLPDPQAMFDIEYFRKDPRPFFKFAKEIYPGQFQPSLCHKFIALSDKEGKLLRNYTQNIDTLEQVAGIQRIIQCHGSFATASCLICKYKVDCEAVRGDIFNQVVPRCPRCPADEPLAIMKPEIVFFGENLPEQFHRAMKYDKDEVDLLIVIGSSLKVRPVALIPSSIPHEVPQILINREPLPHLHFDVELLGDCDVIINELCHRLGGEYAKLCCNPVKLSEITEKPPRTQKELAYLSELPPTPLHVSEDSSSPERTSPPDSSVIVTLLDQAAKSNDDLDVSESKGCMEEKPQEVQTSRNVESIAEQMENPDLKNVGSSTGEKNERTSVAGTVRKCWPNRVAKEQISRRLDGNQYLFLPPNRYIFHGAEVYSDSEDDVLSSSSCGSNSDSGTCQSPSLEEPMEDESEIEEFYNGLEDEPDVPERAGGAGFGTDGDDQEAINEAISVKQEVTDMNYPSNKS
Experimental: Assay Conditions: The sample was dissolved in 70% EtOH. The serial dilution of the compound was first performed in 70% EtOH with the highest concentration at 1%.
The enzymatic reactions for the SIRT1 enzyme were conducted in duplicate at 37° C. for 30 minutes in a 50 μl mixture containing SIRT assay buffer, 5 μg BSA, an HDAC substrate (see 2.3.1), a SIRT enzyme, and a test compound. After enzymatic reactions, 50 μl of 2× SIRT Developer was added to each well for the SIRT enzymes and the plate was incubated at room temperature for an additional 15 minutes. Fluorescence intensity was measured at an excitation of 360 nm and an emission of 460 nm using a Tecan Infinite M1000 microplate reader.
Data Analysis: SIRT activity assays were performed in duplicates at each concentration. […] In the absence of the compound, the fluorescent intensity (Ft) in each data set was defined as 100% activity. In the absence of SIRT, the fluorescent intensity (Fb) in each data set was defined as 0% activity. The percent activity in the presence of each compound was calculated according to the following equation: % activity=(F−Fb)/(Ft−Fb), where F=the fluorescent intensity in the presence of the compound.

[3] = molecular target: T3, human recombinant ARG1 (Homo sapiens, UniProt P05089); assay: ARG1 enzymatic inhibition assay (thioarginine substrate, UV absorbance 412 nm); assay type: biochemical
T3 sequence (P05089 1-322): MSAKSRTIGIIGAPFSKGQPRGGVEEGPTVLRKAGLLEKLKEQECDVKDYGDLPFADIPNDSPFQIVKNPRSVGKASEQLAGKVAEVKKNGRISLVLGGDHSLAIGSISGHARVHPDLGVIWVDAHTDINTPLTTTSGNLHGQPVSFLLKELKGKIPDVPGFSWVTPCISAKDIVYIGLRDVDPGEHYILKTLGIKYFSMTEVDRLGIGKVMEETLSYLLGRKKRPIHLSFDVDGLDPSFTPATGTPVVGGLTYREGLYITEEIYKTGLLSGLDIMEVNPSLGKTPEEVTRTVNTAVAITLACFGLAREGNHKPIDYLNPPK
Experimental: (§1) Assay conditions: The assay was performed using human recombinant ARG1 or ARG2 as enzymes and thioarginine as substrate. The UV absorbance at 412 nm was correlated with the amount of reaction product of ARG1/ARG2. […] 5 μl of 20× sample solutions were added to 90 μl of substrate, and reactions were started by the addition of 5 μl of 20× ARG1/ARG2 solutions. For the negative control (Blank), 5 μl of the assay buffer was added instead of the ARG1/ARG2. […] All reactions were conducted at room temperature and incubated for 30 minutes, ensuring that all wells, containing either samples or controls, contained 0.7% (v/v) EtOH final concentration to discard any solvent effect. UV absorbance readings were done at times 0 and 30 minutes to get net values. Absorbance was measured using a Tecan Infinite M1000 microplate reader.
(§2) Data Analysis: Experiment was performed in duplicate at each concentration. The data were analyzed using the software GraphPad Prism. In the absence of the compound, the net absorbance (At) in each data set was defined as 100% activity. In the absence of ARG1/ARG2, the net absorbance (Ab) in each data set was defined as 0% activity. The percent activity in the presence of each compound was calculated according to the following equation: % activity=[(A−Ab)/(At−Ab)]×100, where A=the absorbance in the presence of the compound.

[4] = molecular target: T4, human recombinant ARG2 (Homo sapiens, UniProt P78540); assay: ARG2 enzymatic inhibition assay (thioarginine substrate, UV absorbance 412 nm); assay type: biochemical
T4 sequence (P78540 23-354): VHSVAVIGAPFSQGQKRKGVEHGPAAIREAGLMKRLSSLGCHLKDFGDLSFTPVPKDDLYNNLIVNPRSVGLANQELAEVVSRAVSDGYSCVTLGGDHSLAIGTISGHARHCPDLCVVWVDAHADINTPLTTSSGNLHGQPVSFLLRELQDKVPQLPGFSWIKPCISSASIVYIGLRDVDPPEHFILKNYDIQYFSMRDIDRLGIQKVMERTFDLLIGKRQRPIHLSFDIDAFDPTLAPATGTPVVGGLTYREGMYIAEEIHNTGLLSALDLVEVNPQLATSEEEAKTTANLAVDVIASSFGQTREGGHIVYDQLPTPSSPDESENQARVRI
Experimental: as §1, §2

[5] = molecular target: T5, recombinant human CD47 (hCD47) with human SIRP-α (Homo sapiens, UniProt Q08722); assay: CD47/SIRP-α in vitro binding assay
T5 construct: purchased 71177 (hCD47, Fc fusion); 71138 (hSIRP-α, Biotin-labeled)
T5 sequence (Q08722 19-141 limits assumed): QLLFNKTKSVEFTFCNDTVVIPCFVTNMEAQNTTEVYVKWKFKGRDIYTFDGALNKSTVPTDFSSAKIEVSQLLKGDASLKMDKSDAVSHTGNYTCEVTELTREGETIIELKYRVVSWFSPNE
Experimental: Assay Conditions: CD47 was coated using 50 μL at 2 ng/μL at 4° C. overnight. After wash and block steps the test compounds were added to CD47-coated plate followed by addition of SIRP-α-biotin. Reaction was incubated for 2 h at room temperature. Binding was detected using HRP-conjugated Streptavidin.

[6] = read-out: Activity (%) Repeat 1
[7] = read-out: Activity (%) Repeat 2
[8] = test concentration 0.001 μM, read-out: Activity (%) Rep. 1
[9] = test concentration 0.01 μM, read-out: Activity (%) Rep. 1
[10] = test concentration 0.1 μM, read-out: Activity (%) Rep. 1

inhibition at 0.01 µM [1]: 0%
inhibition at 0.1 µM [1]: 20%
inhibition at 1 µM [1]: 60%
Absorbance (net) Repeat 1 ([1]; 0.01 μM): 0.17
Absorbance (net) Repeat 2 ([1]; 0.01 μM): 0.17
Absorbance (net) Repeat 1 ([1]; 0.1 μM): 0.14
Absorbance (net) Repeat 2 ([1]; 0.1 μM): 0.15
Absorbance (net) Repeat 1 ([1]; 1 μM): 0.10
Absorbance (net) Repeat 2 ([1]; 1 μM): 0.11
activity at 0.01 µM [1, 6]: 105%
activity at 0.1 µM [1, 6]: 75%
activity at 1 µM [1, 6]: 35%
activity at 0.01 µM [1, 7]: 105%
activity at 0.1 µM [1, 7]: 85%
activity at 1 µM [1, 7]: 45%
Compound: NS(=O)(=O)NCCNc1nonc1C(=NO)Nc1ccc(F)c(Br)c1 [INCB024360]

Compound: Cc1ccc(C(=O)Nc2ccc(S(=O)(=O)O)c3cc(S(=O)(=O)O)cc(S(=O)(=O)O)c23)cc1NC(=O)c1cccc(NC(=O)Nc2cccc(C(=O)Nc3cc(C(=O)Nc4ccc(S(=O)(=O)O)c5cc(S(=O)(=O)O)cc(S(=O)(=O)O)c45)ccc3C)c2)c1 [Suramin]
inhibition at 0.1 µM [2]: 14%
inhibition at 1 µM [2]: 74%
activity at 0.1 µM ([2]; read-out: % Activity Repeat 1): 85%
activity at 1 µM ([2]; read-out: % Activity Repeat 1): 26%
activity at 0.1 µM ([2]; read-out: % Activity Repeat 2): 86%
activity at 1 µM ([2]; read-out: % Activity Repeat 2): 26%
SIRT1 Activity (Fluorescence count) Repeat 1 ([2]; test concentration 0.01 μM): 2415
SIRT1 Activity (Fluorescence count) Repeat 2 ([2]; test concentration 0.01 μM): 2415
inhibition at 0.01 µM ([2]; test concentration 0.01 μM): 0%
activity at 0.01 µM ([2]; test concentration 0.01 μM, read-out: % Activity Repeat 1): 100%
activity at 0.01 µM ([2]; test concentration 0.01 μM, read-out: % Activity Repeat 2): 100%
SIRT1 Activity (Fluorescence count) Repeat 1 ([2]; test concentration 0.1 μM): 2074
SIRT1 Activity (Fluorescence count) Repeat 2 ([2]; test concentration 0.1 μM): 2082
SIRT1 Activity (Fluorescence count) Repeat 1 ([2]; test concentration 1 μM): 710
SIRT1 Activity (Fluorescence count) Repeat 2 ([2]; test concentration 1 μM): 702

Net absorbance Rep. 1 ([3]; test concentration 0.001 μM): 0.74
Net absorbance Rep. 2 ([3]; test concentration 0.001 μM): 0.77
inhibition at 0.001 µM ([3]; test concentration 0.001 μM, read-out: ARG-1 Inhibition (%)): 0%
activity at 0.001 µM [3, 8]: 99%
activity at 0.001 µM ([3]; test concentration 0.001 μM, read-out: Activity (%) Rep.2): 102%
Net absorbance Rep. 1 ([3]; test concentration 0.01 μM): 0.59
Net absorbance Rep. 2 ([3]; test concentration 0.01 μM): 0.59
inhibition at 0.01 µM ([3]; test concentration 0.01 μM, read-out: ARG-1 Inhibition (%)): 22%
activity at 0.01 µM [3, 9]: 79%
activity at 0.01 µM ([3]; test concentration 0.01 μM, read-out: Activity (%) Rep.2): 78%
Net absorbance Rep. 1 ([3]; test concentration 0.1 μM): 0.23
Net absorbance Rep. 2 ([3]; test concentration 0.1 μM): 0.24
inhibition at 0.1 µM ([3]; test concentration 0.1 μM, read-out: ARG-1 Inhibition (%)): 69%
activity at 0.1 µM [3, 10]: 31%
activity at 0.1 µM ([3]; test concentration 0.1 μM, read-out: Activity (%) Rep.2): 31%
Net absorbance Rep. 1 ([4]; test concentration 0.001 μM): 0.78
Net absorbance Rep. 2 ([4]; test concentration 0.001 μM): 0.82
inhibition at 0.001 µM ([4]; test concentration 0.001 μM, read-out: ARG-2 Inhibition (%)): 17%
activity at 0.001 µM [4, 8]: 81%
activity at 0.001 µM ([4]; test concentration 0.001 μM, read-out: Activity (%) Rep. 2): 84%
Net absorbance Rep. 1 ([4]; test concentration 0.01 μM): 0.56
Net absorbance Rep. 2 ([4]; test concentration 0.01 μM): 0.60
inhibition at 0.01 µM ([4]; test concentration 0.01 μM, read-out: ARG-2 Inhibition (%)): 41%
activity at 0.01 µM [4, 9]: 57%
activity at 0.01 µM ([4]; test concentration 0.01 μM, read-out: Activity (%) Rep. 2): 62%
Net absorbance Rep. 1 ([4]; test concentration 0.1 μM): 0.19
Net absorbance Rep. 2 ([4]; test concentration 0.1 μM): 0.19
inhibition at 0.1 µM ([4]; test concentration 0.1 μM, read-out: ARG-2 Inhibition (%)): 81%
activity at 0.1 µM [4, 10]: 19%
activity at 0.1 µM ([4]; test concentration 0.1 μM, read-out: Activity (%) Rep. 2): 19%
Compound: N=C(NO)NCC[C@H](N)C(=O)O [nor-NOHA]

Compound: SIRP-α
Activity (%) Repeat 1 ([5]; 0.05 μM): 93%
Activity (%) Repeat 2 ([5]; 0.05 μM): 97%
Inhibition (%) ([5]; 0.05 μM): 5%
Luminescence Repeat 1 ([5]; 0.05 μM): 35347
Luminescence Repeat 2 ([5]; 0.05 μM): 36581
Activity (%) Repeat 1 ([5]; 0.5 μM): 52%
Activity (%) Repeat 2 ([5]; 0.5 μM): 51%
Inhibition (%) ([5]; 0.5 μM): 49%
Luminescence Repeat 1 ([5]; 0.5 μM): 19746
Luminescence Repeat 2 ([5]; 0.5 μM): 19259
Activity (%) Repeat 1 ([5]; 5 μM): 14%
Activity (%) Repeat 2 ([5]; 5 μM): 18%
Inhibition (%) ([5]; 5 μM): 84%
Luminescence Repeat 1 ([5]; 5 μM): 5310
Luminescence Repeat 2 ([5]; 5 μM): 6891
